Values joined by “and” are separate entries in the source; they are usually repeats but may differ in a detail not shown here. Equal entries are not always repeated.
Key:
[1] = tested on: Oncologic patients receiving therapy with morphine orally; experiment: Clinical study: naltrexone in oncologic patients receiving therapy with morphine orally; format: in vivo; conditions: individual patient, ½ hour before oral morphine (average 40 mg +/- 10 mg)
[2] = tested on: Spine patients undergoing therapy with morphine by the spinal route; experiment: Clinical study: naltrexone in spine patients undergoing therapy with morphine by the spinal route; format: in vivo; conditions: individual patient, ½ hour before epidural load, spinal morphine (average 4.8 mg +/- 0.4 mg)
patients = patients (total number 80) before treatment with Naltrexone
[3] = naltrexone 0.125 mcg every 12 hours
[4] = naltrexone 2.5 mcg every 12 hours
[5] = naltrexone 5 mcg every 12 hours
[6] = naltrexone 1 mcg every 12 hours

O=C1CC[C@@]2(O)[C@H]3Cc4ccc(O)c5c4[C@@]2(CCN3CC2CC2)[C@H]1O5 [Naltrexone, naltrexone]
Analgesia (%): analgesic efficacy after administration of naltrexone ([1]; naltrexone 1 mg every 12 hours): 100% (8×) and 90% (2×) and 65% (2×) and 60% (2×) and 70% (3×) and 65%** (3×) and 55% and 75%** and 70%** and 85% (2×) and 45%** and 45% | Benefit (%): percentage reduction of adverse effects ([1]; naltrexone 1 mg every 12 hours): 90% (3×) and 65% (8×) and 40% (2×) and 70% (4×) and 100% (3×) and 75% and 95% and 0% and 55% and 50% and 80% (2×) | Analgesia (%): analgesic efficacy after administration of naltrexone [1, 3]: 45% (2×) and 55%** and 65%** and 60% | Benefit (%): percentage reduction of adverse effects [1, 3]: 65% (3×) and 40% and 100% | Analgesia (%): analgesic efficacy after administration of naltrexone ([1]; naltrexone 0.125 mcg/day): 60% | Benefit (%): percentage reduction of adverse effects ([1]; naltrexone 0.125 mcg/day): 100% | Analgesia (%): analgesic efficacy after administration of naltrexone [1, 4]: 0% and 45% (7×) and 55% (2×) and 60%** and 100% (2×) and 70% and 60% (3×) and 40% | Benefit (%): percentage reduction of adverse effects [1, 4]: 100% and 80% (5×) and 70% and 50% (3×) and 65% (2×) and 40% and 60% (2×) and 25% and 55% and 90% | Analgesia (%): analgesic efficacy after administration of naltrexone ([1]; naltrexone 2.5 mcg/day): 60% | Benefit (%): percentage reduction of adverse effects ([1]; naltrexone 2.5 mcg/day): 90% | Analgesia (%): analgesic efficacy after administration of naltrexone [1, 5]: 45% (2×) and 55% (5×) and 70% and 100% (3×) and 90% (3×) and 60% (3×) and 65% and 60%** (2×) and 65%** and 55%** and 70%** | Benefit (%): percentage reduction of adverse effects [1, 5]: 60% (4×) and 0% and 70% and 50% (3×) and 45% (4×) and 85% (2×) and 55% (2×) and 35% and 40% (2×) and 65% and 100% (2×) | Analgesia (%): analgesic efficacy after administration of naltrexone ([2]; naltrexone 1 mg every 12 hours): 95% and 60% and 65% | Benefit (%): percentage reduction of adverse effects ([2]; naltrexone 1 mg every 12 hours): 65% (2×) and 50% | Analgesia (%): analgesic efficacy after administration of naltrexone [2, 6]: 65% and 45% (2×) | Benefit (%): percentage reduction of adverse effects [2, 6]: 65% and 70% and 100% | Analgesia (%): analgesic efficacy after administration of naltrexone [2, 4]: 45% (2×) and 75% and 60% and 55% (2×) and 90% and 0% and 100% (3×) and 85% | Benefit (%): percentage reduction of adverse effects [2, 4]: 45% (2×) and 80% (4×) and 60% (3×) and 100% (2×) and 95% | Analgesia (%): analgesic efficacy after administration of naltrexone [2, 5]: 45% and 100% and 60% (3×) and 35% and 85% and 15% | Benefit (%): percentage reduction of adverse effects [2, 5]: 70% (2×) and 95% and 50% (3×) and 65% and 30%

CN1CC[C@]23c4c5ccc(O)c4O[C@H]2[C@@H](O)C=C[C@H]3[C@H]1C5 [morphine]
Incidence of adverse effects from morphine: Asthenia (patients): 43.3% | Incidence of adverse effects from morphine: Constipation (patients): 70% | Incidence of adverse effects from morphine: Dizziness (patients): 13.3% | Incidence of adverse effects from morphine: Drowsiness (patients): 30% | Incidence of adverse effects from morphine: Headache (patients): 6.7% | Incidence of adverse effects from morphine: Inappetence (patients): 46.7% | Incidence of adverse effects from morphine: Nausea (patients): 53.3% | Incidence of adverse effects from morphine: Pruritus (patients): 30% | Incidence of adverse effects from morphine: Vomiting (patients): 53.3%

— US20130059876A1, “LIQUID NASAL SPRAY CONTAINING LOW-DOSE NALTREXONE” (L Molteni & C Dei Fratelli Alitti Societa Di Esercizio S.p.A, priority 2010, published 2013)
